Reference: ChEMBL document CHEMBL4177522, “Effects of new fluorinated analogues of GABA, pregabalin bioisosters, on the ambient level and exocytotic release of [3H]GABA from rat brain nerve terminals” (Bioorg Med Chem, 2017)

How the values were obtained:
[1] = Effect on ambient level of [3H]GABA in Wistar rat synaptosomes assessed as [3H]GABA level at 100 uM preincubated for 20 mins (reference value: 14.20 +/- 1.03%); assay type: ADME, subcellular, Synaptosome
[2] = Induction of plasma membrane depolarization in Wistar rat synaptosomes at 100 uM by rhodamine 6G based spectrofluorimeteric method; assay type: subcellular, Synaptosome
Rattus norvegicus = organism: Rattus norvegicus; test: Decrease in KCl-induced exocytotic release of [3H]GABA in Wistar rat synaptosomes at 100 uM preincubated for 20 mins followed by Kcl addition in Ca2+ containing media measured after 5 mins; assay type: functional, subcellular; parameters: scale not given: the % may be the effect or the level left
[3] = Effect on ambient level of [3H]GABA in Wistar rat synaptosomes assessed as [3H]GABA level at 100 uM preincubated for 20 mins in presence of GAT1 specific blocker NO-711 (reference value: 25.07 +/- 2.1%); assay type: ADME, subcellular, Synaptosome
[4] = Effect on ambient level of L-[3H]glutamate in Wistar rat synaptosomes assessed as L-[3H]glutamate level at 100 uM preincubated for 20 mins (reference value: 24.68 +/- 1.49%); assay type: ADME, subcellular, Synaptosome
[5] = Induction of plasma membrane hyperpolarization in Wistar rat synaptosomes at 100 uM by rhodamine 6G based spectrofluorimeteric method; assay type: subcellular, Synaptosome

For `NCC(CC(=O)O)C(F)(F)C(F)F` (racemic), the Activity [1] was 14.63%, the Activity [2] was “Non-Toxic” and the Activity (Rattus norvegicus) was 33%. The Activity [3] was 26.6%, the Activity [4] was 25.29% and the Activity [5] was “Non-Toxic”.
With `NC[C@@H](CC(=O)O)C(F)(F)F` the Activity [1] was 13.35%, the Activity [2] was “Non-Toxic” and the Activity (Rattus norvegicus) was 26%. The Activity [3] was 24.86%, the Activity [4] was 24.75% and the Activity [5] was “Non-Toxic”.
With `NC[C@@](O)(CC(=O)O)C(F)(F)F` the Activity [1] was 15.55%, the Activity [2] was “Non-Toxic” and the Activity (Rattus norvegicus) was 35%. For the same molecule, the Activity [3] was 27.9%, the Activity [4] was 22.72% and the Activity [5] was “Non-Toxic”.
In the case of `CC(C)C[C@H](CN)CC(=O)O` [PREGABALIN], the Activity [1] is reported as 14.1%, the Activity [2] is reported as “Non-Toxic” and the Activity (Rattus norvegicus) is reported as 15%. The Activity [3] was 24.34%, the Activity [4] was 26.2% and the Activity [5] was “Non-Toxic”.
